These results are taken from patent US7176192B2, “Method for treating patients for radiation exposure” (BioNumerik Pharmaceuticals, Inc., priority 2001, dated 2007).

For series [1], the system named is humans. In words: administration of dimesna to humans, tolerability. It is filed as in vivo. Conditions: doses exceeding 15 g/m^2. The source says:
(§1) Mesna and dimesna, as well as some analogues of these compounds, have excellent toxicity profiles in mammalian species. However, it is clear from our earlier discoveries that dimesna has a much lower degree of toxicity relative to mesna; this lower degree of toxicity for dimesna imparts additional therapeutic value to this invention for radiation therapy since it is contemplated that chronic or high doses of dimesna will be needed in some circumstances in order to provide adequate prophylaxis for radiation toxicity as well as for treatment of acute or chronic radiation toxicity.

Series [2] relates to dogs. In words: intravenous administration of dimesna to dogs, tolerability. It is filed as in vivo. Conditions: intravenously, doses higher than 3750 mg/kg.
Source text: as §1

Series [3] has as its system mice. In words: intravenous administration of dimesna to mice, tolerability. It is filed as in vivo. To be noted: intravenously, doses higher than 3750 mg/kg.
Source text: as §1

For series [4] the following is noted: accepted value, species not stated; cited from earlier work.

Molecules are shown by their SMILES.

As for `O=S(=O)([O-])CCSSCCS(=O)(=O)[O-].[Na+].[Na+]` [Dimesna, disodium 2,2′-dithiobis ethane sulfonate], the adverse effects entry in series [1] is given as “no major adverse effects”; in series [2] it was “no adverse effects”; in series [3] it was “no adverse effects”.

Turning to `[Cl-].[Na+]` [common table salt], the “oral LD50” value in series [4] is on record as 3750 mg/kg.
